pEC50: −log10 of the molar value. Where two headings read alike, the source gives them in different places.
Target: T1, ELIC (Dickeya chrysanthemi, UniProt P0C7B7)
T1 construct: expressed in transfected cells; host or cells: Xenopus laevis oocytes (cRNA injection, pTLN vector)
Assay: cell-based
Format: cell-based, Erwinia chrysanthemi
Details: for n (Hill coefficient) / pEC50: WT; for pEC50: read-out: EC50 of activation of ELIC
Source text: To identify ligands that activate ELIC we have expressed the protein in Xenopus laevis oocytes and investigated the response to potential agonists by the two-electrode voltage-clamp technique. Based on the volume and chemical properties of the proposed ligand binding region and the presence of positively charged ions bound to this site, we reasoned that parts of the agonists might have a cationic character. […] Our library included different natural products such as amino acids and their derivatives, metabolites, and related synthetic substances (Figure S3A).
Constructs containing the gene of either the WT channel or point mutants preceded by the signal sequence of the chicken α7nAchR were cloned into the pTLN vector for expression in X. laevis oocytes. After linearization of the plasmid DNA by MluI, capped complementary RNA was transcribed with the mMessage mMachine kit (Ambion) and purified with the RNeasy kit (Qiagen). For expression, 1–50 ng of RNA was injected into defolliculated oocytes. Two-electrode voltage clamp measurements were performed one day after injection at 20°C (OC-725B, Warner Instrument Corp.). […] Cysteamine containing solutions were supplemented with 1 mM DTT.

[1] = ligand added to the extracellular solution, 10 mM, -60 mV, compared with 2 mM cysteamine
[2] = pH 7.0, two-electrode voltage clamp, -60 mV, fit to Hill equation
[3] = pH 7.0, averages and s.d. of six measurements

T1 sequence (P0C7B7 whole entry): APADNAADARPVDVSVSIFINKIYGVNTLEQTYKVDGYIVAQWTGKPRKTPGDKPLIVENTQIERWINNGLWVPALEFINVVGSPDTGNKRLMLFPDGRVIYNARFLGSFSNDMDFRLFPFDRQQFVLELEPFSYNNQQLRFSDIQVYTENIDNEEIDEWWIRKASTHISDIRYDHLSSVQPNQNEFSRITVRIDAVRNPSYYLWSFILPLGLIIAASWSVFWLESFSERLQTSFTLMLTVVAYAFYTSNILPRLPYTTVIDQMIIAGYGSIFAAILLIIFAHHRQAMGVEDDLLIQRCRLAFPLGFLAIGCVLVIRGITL

SMILES	activating current response of ELIC to the ligand [1]	n (Hill coefficient) (pH 7.0)	pEC50 [2]	Imax/Imax cysteamine [3]	also measured
CC(=O)OCC[N+](C)(C)C [acetylcholine]	ineffective				
NCCCS [homocysteamine]	small				
NCC(=O)O [glycine]					activating current response of ELIC to the ligand: absent
NCCCBr [bromopropylamine]	opening the channel	3.9	2.96	0.71±0.03	
CCN [Ethylamine]	activate the channel				
NCCCC(=O)O [GABA]	activating response at low mM concentrations	3.9	2.62	0.79±0.09	
NCCC(=O)O [beta-alanine]					activating current response of ELIC to the ligand: absent
NCCN	activate ELIC				n (Hill coefficient) (pH 8.0): 3.2; pEC50 (pH 8.0, two-electrode voltage clamp, -60 mV): 2.70; activating current response of ELIC to the ligand (ligand added to the extracellular solution, 10 mM, -60 mV, compared with 2 mM cysteamine, listed as aminoethane): already active at neutral conditions; Imax/Imax cysteamine (pH 9.0, averages and s.d. of six measurements): 1.07±0.06
NCCCCO	strong activation	2.9	2.77	0.98±0.03	
